Experimental data: patent US11464770B2, “Anticancer pharmaceutical composition” (NATIONAL CANCER CENTER, priority 2016, dated 2022)
Read-outs that look alike come from different tables or passages of the source.

Assays:
[1] = system: bladder cancer cell lines; experiment: Cell based assay, cell viability (CellTiter-Glo), bladder cancer cell lines; settings: 72 hours treatment, 0 to 2 μM, CellTiter-Glo
Outline: (§1)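 Trypsin-EDTA-detached lines seeded; 24 h later compound added (final 0–2 μM); 72 h exposure; ATP luminescence viability readout.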

[2] = system: RT4: human urinary bladder transitional cell papilloma; experiment: Cell based assay, cytotoxicity in RT4 papilloma cells (selectivity); settings: Homo sapiens, RT-4; RT4 cells
brain cancer cell lines = experiment: Cell based assay, cell viability (CellTiter-Glo), brain cancer cell lines; settings: Homo sapiens
neuroblastoma cell lines = experiment: Cell based assay, cell viability (CellTiter-Glo), neuroblastoma cell lines; settings: Homo sapiens; SH-SY5Y cell line
Outline: as §1

[3] = system: ovarian cancer cell lines; experiment: Cell based assay, cell viability (CellTiter-Glo), ovarian cancer cell lines; settings: Homo sapiens; OVCAR-3 cells
Outline: as §1

[4] = 5637 cells, read-out: IC50, bladder cancer cell line 5637
[5] = Homo sapiens, T-24, T24 cells, read-out: IC50, bladder cancer cell line T24
[6] = Homo sapiens, J82 cells, read-out: IC50, bladder cancer cell line J82
[7] = U138-MG, U-138 MG cell line, read-out: IC50, Brain cancer cell line U-138 MG
[8] = T98G cell line, read-out: IC50, Brain cancer cell line T98G
[9] = U-251 MG cell line, read-out: IC50, Brain cancer cell line U-251 MG

SMILES | IC50 [1, 4] [nM] | IC50 [1, 5] [nM] | IC50 [1, 6] [nM] | IC50 [2] [nM] | IC50 (brain cancer cell lines; [7]) [nM] | IC50 (brain cancer cell lines; [8]) [nM] | IC50 (brain cancer cell lines; [9]) [nM] | IC50 (neuroblastoma cell lines) [nM] | IC50 [3] [nM] | IC50 ([1]; Homo sapiens, KU-19-19 cells, read-out: IC50, bladder cancer cell line KU-19-19) [nM]
CC(=O)c1c([S+]([O-])Cc2cc(F)cc(F)c2)[nH]c2c(Br)ccc(Cl)c2c1=O (stereo not shown) [Compound 46, 3-acetyl-8-bromo-5-chloro-2-((3,5-difluorobenzyl)sulfinyl)quinolin-4(1H)-one] | 1770 | 1570 | > 2000 | > 10000 | > 2000 | > 10000 | > 2000 | > 2000 | 1020 | 
Cc1cc(C[S+]([O-])c2[nH]c3c(Cl)ccc(Cl)c3c(=O)c2C(=O)C(C)C)no1 (stereo not shown) [Compound 86, 5,8-dichloro-3-isobutyryl-2-(((5-methylisoxazol-3-yl)methyl)sulfinyl)quinolin-4(1H)-one] | 1360 | 1020 | 1610 | > 10000 | 1290 | > 10000 | 740 | 500 | 380 | 
CC(=O)c1c([S+]([O-])Cc2cc(C)on2)[nH]c2c(Br)ccc(Cl)c2c1=O (stereo not shown) [Compound 51, 3-acetyl-8-bromo-5-chloro-2-(((5-methylisoxazol-3-yl)methyl)sulfinyl)quinolin-4(1H)-one] | 1070 | 890 | > 2000 | > 10000 | 1920 | > 10000 | > 2000 | > 2000 | 850 | 
CC(=O)c1c(S(=O)(=O)Cc2ccccc2)[nH]c2c(Br)ccc(Cl)c2c1=O [Compound 34, 3-acetyl-2-(benzylsulfonyl)-8-bromo-5-chloroquinolin-4(1H)-one] | > 2000 | > 2000 | > 2000 | > 10000 | > 2000 | > 10000 | > 2000 | > 2000 | 990 | 
Cc1cc(C[S+]([O-])c2[nH]c3c(Br)ccc(Cl)c3c(=O)c2C(=O)C(C)C)no1 (stereo not shown) [Compound 95, 8-bromo-5-chloro-3-isobutyryl-2-(((5-methylisoxazol-3-yl)methyl)sulfinyl)quinolin-4(1H)-one] | 1230 | 980 | 1470 | > 10000 | 1010 | > 10000 | 610 | 480 | 380 | 
CC(=O)c1c([S+]([O-])Cc2ccc(C(F)(F)F)o2)[nH]c2c(Br)ccc(Cl)c2c1=O (stereo not shown) [Compound 72, 3-acetyl-8-bromo-5-chloro-2-(((5-(trifluoromethyl)furan-2-yl)methyl)sulfinyl)quinolin-4(1H)-one] | 1640 | 1250 | 1630 | > 10000 | 1180 | > 10000 | 1070 | > 2000 | 730 | 
COc1cccc(C[S+]([O-])c2[nH]c3c(Br)ccc(Cl)c3c(=O)c2C(C)=O)c1 (stereo not shown) [Compound 55, 3-acetyl-8-bromo-5-chloro-2-((3-methoxybenzyl)sulfinyl)quinolin-4(1H)-one] | > 2000 | 1540 | > 2000 | > 10000 | > 2000 | > 10000 | > 2000 | > 2000 | 920 | 
CC(=O)c1c([S+]([O-])Cc2ccc(SC(F)(F)F)cc2)[nH]c2c(Br)ccc(Cl)c2c1=O (stereo not shown) [Compound 56, 3-acetyl-8-bromo-5-chloro-2-((4-((trifluoromethyl)thio)benzyl)sulfinyl)quinolin-4(1H)-one] | > 2000 | 980 | 1460 | > 10000 | 1340 | > 10000 | 1170 | > 2000 | 1090 | 900
